According to paper PMC2858063 (Steroids, 2010):
“Also recorded” adds a separate entry of the source. Where two headings read alike, the source gives them in different places.

Columns and labels:
[1] = molecular target: T1, hu-mPRα (Homo sapiens, UniProt Q86WK9); assay: hu-mPRα steroid binding assay; settings: for RBA (Relative Binding Affinity): compared with progesterone (=100), human mPRα; for binding to hu-mPRα (in words): this study, Fig. 1, Table 1
T1 sequence (Q86WK9 1-346): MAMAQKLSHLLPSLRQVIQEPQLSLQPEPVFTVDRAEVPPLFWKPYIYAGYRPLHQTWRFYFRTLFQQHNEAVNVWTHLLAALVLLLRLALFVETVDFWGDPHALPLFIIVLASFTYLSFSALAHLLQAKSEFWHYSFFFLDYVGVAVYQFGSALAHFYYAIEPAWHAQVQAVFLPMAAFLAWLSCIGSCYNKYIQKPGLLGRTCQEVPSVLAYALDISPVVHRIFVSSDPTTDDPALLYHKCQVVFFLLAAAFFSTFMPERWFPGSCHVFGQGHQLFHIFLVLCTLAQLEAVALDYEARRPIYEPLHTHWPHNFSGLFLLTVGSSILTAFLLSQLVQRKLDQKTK

[2] = molecular target: T1, hu-mPRα; settings: cited from earlier work; for binding affinity for nPR compared with mPRα: selectivity in words; for binding to hu-mPRα (in words): earlier series
[3] = molecular target: T2, human nPR (Homo sapiens, UniProt P06401); settings: cited from earlier work; for pIC50 (mean): 50% displacement of [3H] Org 2058, extracted from log RBA; for logRBA: RBA (%) compared with that of Org 2058 (=100%)
T2 sequence (P06401 679-933 limits assumed): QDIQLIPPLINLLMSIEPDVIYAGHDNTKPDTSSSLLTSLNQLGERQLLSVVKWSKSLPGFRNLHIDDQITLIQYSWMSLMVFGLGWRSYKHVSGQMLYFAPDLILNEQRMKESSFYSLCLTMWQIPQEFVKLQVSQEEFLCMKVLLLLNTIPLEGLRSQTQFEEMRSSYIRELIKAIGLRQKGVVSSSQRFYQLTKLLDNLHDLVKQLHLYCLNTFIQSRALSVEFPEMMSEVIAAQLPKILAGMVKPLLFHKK

Compound	RBA (Relative Binding Affinity) [1] [%]	binding to hu-mPRα (in words) [1]	pIC50 (mean) [3]	logRBA [3]	also measured
3,20-dioxopregn-4-ene-18-carbonitrile	1.8	low binding affinities			
C#CC1(O)CC[C@H]2[C@@H]3CCC4=CC(=O)CC[C@@H]4[C@H]3CC[C@@]21CC (mixture of isomers) [norgestrel]					binding affinity for nPR compared with mPRα [2]: greater binding affinity for nPR than mPRα
CC(=O)[C@H]1CC[C@H]2[C@@H]3CCC4=CC(=O)[C@H](O)C[C@]4(C)[C@H]3CC[C@]12C [2α-hydroxyprogesterone]					binding to hu-mPRα (in words) [2]: poor binding
CC(=O)[C@H]1CC[C@H]2[C@@H]3CCC4=CC(=O)[C@H](C#N)C[C@]4(C)[C@H]3CC[C@]12C [3,20-Dioxopregn-4-ene-2α-carbonitrile]	<1	inactivity			
CC(=O)[C@H]1CC[C@H]2[C@@H]3CC[C@H]4C[C@H](O)CC[C@]4(C)[C@H]3CC[C@]12C [3α-Hydroxy-5α-pregnan-20-one]	7.6				IC50 [1]: 1150 nM
CC(=O)[C@H]1CC[C@H]2[C@@H]3CC[C@H]4C[C@@H](O)CC[C@]4(C)[C@H]3CC[C@]12C [3β-Hydroxy-5α-pregnan-20-one]		absence of binding			
C[C@]12CC[C@H]3[C@@H](CC[C@H]4CC(=O)CC[C@@H]43)[C@@H]1CC[C@@H]2O [5α-Dihydronandrolone]			6.50	−0.22	
C[C@]12CCC(=O)C[C@@H]1CC[C@@H]1[C@@H]2CC[C@]2(C)[C@@H](O)CC[C@@H]12 [5α-Dihydrotestosterone (DHT), 5α-Dihydrotestosterone]			6.16	−0.56	
CC(=O)S[C@@H]1CC2=CC(=O)CC[C@]2(C)[C@H]2CC[C@]3(C)[C@@H](C(C)=O)CC[C@H]3[C@H]12 [7α-Acetylthioprogesterone (Org 33718-0), 7α-Acetylthioprogesterone]	<1				
CC(=O)[C@H]1CC[C@H]2[C@@H]3CCC4=CC(=O)CC[C@]4(C)[C@H]3[C@@H](O)C[C@]12C [11β-hydroxyprogesterone]					lower binding affinity relative to progesterone ([2]; mPRα, observed earlier): 10 fold
CCC1CC2C3CCC4=CC(=O)CCC4C3CCC2(C)C1C(=O)CO (stereo not drawn) [16α-ethyl-21-hydroxy-19-norpregn-4-ene-3,20-dione]				2.00	binding to hu-mPRα (in words) [2]: poor binding affinities; binding affinity for nPR compared with mPRα [2]: greater binding affinity for nPR than mPRα
CCCCCC(=O)O[C@]1(C(C)=O)CC[C@H]2[C@@H]3CCC4=CC(=O)CC[C@]4(C)[C@H]3CC[C@@]21C [17-Caproylprogesterone]	4.4				
C[C@]12CC[C@H]3[C@@H](CCC4=CC(=O)CC[C@@]43C)[C@@H]1CC[C@H]2O [17-Epitestosterone]	2.8				
CC[C@]1(O)CC[C@H]2[C@@H]3CCC4=CC(=O)CC[C@@H]4[C@H]3CC[C@@]21C [17-Hydroxy-19-nor-17α-pregn-4-en-3-one]			8.24	1.52	
C[C@@H]1C=C2CC(=O)CC[C@]2(C)[C@H]2CC[C@]3(C)[C@@H](O)CC[C@H]3[C@H]12 [17β-Hydroxy-7α-methylandrost-5-en-3-one]	3.0				IC50 [1]: 2880 nM; decrease in binding relative to testosterone ([1]; mPRα, compared with testosterone of ref 10): 10 fold
CC(C)[C@@H]1C[C@H]2[C@@H]3CCC4=CC(=O)CC[C@@H]4[C@H]3CC[C@]2(C)[C@H]1O [17β-Hydroxy-16α-isopropylestr-4-en-3-one]			7.72	1.00	
C[C@]1(O)CC[C@H]2[C@@H]3CCC4=CC(=O)CC[C@@H]4[C@H]3CC[C@@]21C [17β-Hydroxy-17α-methylestr-4-en-3-one]			7.66	0.94	

Compound	RBA (Relative Binding Affinity) [1] [%]	binding to hu-mPRα (in words) [1]	pIC50 (mean) [3]	logRBA [3]	also measured
CC(=O)[C@H]1CC[C@H]2[C@@H]3CCC4=CC(=O)CC[C@]4(CO)[C@H]3CC[C@]12C [19-Hydroxyprogesterone]	0.7	low binding affinities			
CC(=O)[C@H]1CC[C@H]2[C@@H]3CCC4=CC(=O)CC[C@@H]4[C@H]3CC[C@]12C [19-Norprogesterone]			8.53	1.81	binding affinity for nPR compared with mPRα [2]: greater binding affinity for nPR than mPRα
C=CC[C@]1(O)CC[C@H]2[C@@H]3CCC4=CCCC[C@@H]4[C@H]3CC[C@@]21C [Allylestrenol]			7.04	0.32	
C[C@]12CCC(=O)C=C1CC[C@@H]1[C@@H]2CC[C@]2(C)C(=O)CC[C@@H]12 [Androst-4-ene-3,17-dione]		unable to bind	6.02	−0.70	
C[C@]12CCC(=O)C=C1CC[C@@H]1[C@@H]2CC[C@@]2(C)[C@H]1CC[C@]2(O)C(=O)CO [Cortexolone (11-deoxycortisol), 11-deoxycortisol]	1.8	less potent than deoxycorticosterone			IC50 [1]: 4850 nM
C[C@]12CCC(=O)C=C1CC[C@@H]1[C@@H]2[C@@H](O)C[C@@]2(C)[C@H]1CC[C@]2(O)C(=O)CO [Cortisol (hydrocortisone), Cortisol]		complete loss of affinity			
C[C@]12CC[C@@H]3c4ccc(O)cc4CC[C@H]3[C@@H]1CC[C@@H]2O [Estradiol-17β]		no binding affinity			
C#C[C@]1(O)CC[C@H]2[C@@H]3CCC4=CC(=O)CC[C@]4(C)[C@H]3CC[C@@]21C [Ethisterone]					binding affinity for nPR compared with mPRα [2]: greater binding affinity for nPR than mPRα
CC[C@]1(O)CC[C@H]2[C@@H]3CCC4=CCCC[C@@H]4[C@H]3CC[C@@]21C [Ethylestrenol]			7.21	0.49	
C#C[C@]1(O)CC[C@H]2[C@@H]3CCC4=CCCC[C@@H]4[C@H]3CC[C@@]21C [Lynestrenol]			6.95	0.23	
CC#C[C@]1(O)CC[C@H]2[C@@H]3CCC4=CC(=O)CCC4=C3[C@@H](c3ccc(N(C)C)cc3)C[C@@]21C [Mifepristone]					binding to hu-mPRα (in words) ([2]; listed as RU486): little or no affinity; also recorded: does not bind
C[C@]12CC[C@H]3[C@@H](CCC4=CC(=O)CC[C@@H]43)[C@@H]1CC[C@@H]2O [Nandrolone, 19-nortestosterone]			7.20	0.48	
CC(=O)[C@H]1CC[C@H]2[C@@H]3CCC4=CC(=O)C=C[C@]4(C)[C@H]3CC[C@]12C [Pregna-1,4-diene-3,20-dione]	93.5	little or no influence relative to the progesterone response			IC50 [1]: 93.5 nM
CC(=O)[C@H]1CC[C@H]2[C@@H]3C=CC4=CC(=O)CC[C@]4(C)[C@H]3CC[C@]12C [Pregna-4,6-diene-3,20-dione]	98.9	little or no influence relative to the progesterone response			IC50 [1]: 88.4 nM
CC(=O)[C@H]1CC[C@H]2[C@@H]3CCC4=CC(=O)CC[C@]4(C)[C@H]3CC[C@]12C [Progesterone]					IC50 [1]: 87.4 nM
C#C[C@]1(O)CC[C@H]2[C@@H]3CCC4=CC(=O)CC[C@@H]4[C@H]3CC[C@@]21C [norethisterone]					binding affinity for nPR compared with mPRα [2]: greater binding affinity for nPR than mPRα
